{"source": "patent EP0292365A2", "about": "“4-Amino-5,8-quinazolindione derivatives, process for their preparation and pharmaceutical compositions containing them” (CENTRE NATIONAL DE LA RECHERCHE SCIENTIFIQUE, priority 1987, dated 1988)", "key": {"cellules de lignée MCF-7": {"tested_on": "cellules de lignée MCF-7", "assay": "Effect on in vitro cell growth, MCF-7 line (Feulgen staining, automated scanning microscopy)", "type": "cell-based, humaine", "conditions": "for nombre de cellules observées par champ de microscope: MCF-7", "description": "(§1) Les cellules tumorales en croissance exponentielle sont ensemencées (10.000 cellules/ml) dans des boîtes à Petri contenant au fond de la boîte un couvre-objet (18 x 18 mm) et 3 ml de MEM (MEM = milieu essentiel minimum) + 5 % FCS (FCS = serum de veau fetal) (v/v). Après 24 heures d'incubation, quand les cellules sont bien attachées au fond de la boîte, le milieu est remplacé par MEM expérimental contenant 5 % FCS (v/v) et enrichi, par exemple de : • a) 3 ml du milieu (MEM + 5 % FCS) = témoins • b) 3 ml du milieu contenant une dose élevée du composé à tester : 10 µg/ml : (M) • c) milieu contenant une faible dose du composé à tester : 0.01 µg/ml (f) respectivement aux jours 1, 2, 3 et 4 après addition du milieu expérimental dans les boîtes de Petri. Trois couvre-objets sont fixés pour chaque condition expérimentale : éthanol 95° (75 v), formol neutre à 40 % (20 v), acide acétique (5 v), pendant 10 minutes. Les cellules témoins cultivées dans le milieu expérimental sans le produit à tester sont fixées au même moment. A la fin de la fixation, les couvre-objets sont retournés et montés sur des lames histologiques à l'aide de produit commercialisé sous la marque DPX par la Société British Drug House et conservés à l'abri de la lumière et à 4° en attendant d'être colorés.\nLes lames avec les couvre-objets sont colorées par une réaction de Feulgen modifiée. Toutes les lames d'une condition expérimentale sont conditionnées par le réactif de Feulgen en même temps, pendant une heure, après hydrolyse dans un milieu HCI 6N pendant une heure à 20° C. Les préparations cellulaires sont ensuite conservées à l'abri de la lumière et à 4°C en attendant l'analyse.\nGrâce à un système d'analyse microscopique à balayage automatique, on détermine l'effet de la drogue sur la croissance cellulaire, au cours du temps, sur deux lignées cellulaires tumorales d'origine humaine : la lignée MCF-7 d'origine mammaire et la lignée HBL (mélanome malin).\nOn a représenté dans le tableau C les résultats relatifs à l'action du composé 63 sur la croissance des cellules de lignée MCF-7 et dans le tableau C BIS, les résultats relatifs à l'action du composé 63 sur la croissance des cellules de lignée HBL. Ces résultats montrent le nombre de cellules survivant au traitement après 1, 2, 3 et 4 jours d'incubation et à trois doses différentes (10 µg/ml, 1 µg/ml et 0,1 µg/ml).\nChaque chiffre correspond au nombre de cellules observées par champ de microscope."}, "cellules MCF-7": {"tested_on": "cellules MCF-7", "assay": "Effect on cell cycle phases, MCF-7 line", "type": "cell-based, humaine", "conditions": "summary of tableau D", "description": "as §1\nLes lames avec les couvre-objets sont colorées par une réaction de Feulgen modifiée. […]"}}, "data": [{"compound": "CN(C)CCCNc1ncnc2c1C(=O)C(N1CC1)=C(N1CC1)C2=O", "note": "[composé 63]", "values": [{"measurement": "nombre de cellules observées par champ de microscope", "setting": "cellules de lignée MCF-7; 0.1µg/ml (f), 1j", "value": "174± 38", "unit": "ns"}, {"measurement": "nombre de cellules observées par champ de microscope", "setting": "cellules de lignée MCF-7; 0.1µg/ml (f), 2j", "value": "92± 21"}, {"measurement": "nombre de cellules observées par champ de microscope", "setting": "cellules de lignée MCF-7; 0.1µg/ml (f), 3j", "value": "38± 6"}, {"measurement": "nombre de cellules observées par champ de microscope", "setting": "cellules de lignée MCF-7; 0.1µg/ml (f), 4j", "value": "30± 4"}, {"measurement": "nombre de cellules observées par champ de microscope", "setting": "cellules de lignée MCF-7; 1µg/ml (M), 1j", "value": "133± 7", "unit": "ns"}, {"measurement": "nombre de cellules observées par champ de microscope", "setting": "cellules de lignée MCF-7; 1µg/ml (M), 2j", "value": "85± 8"}, {"measurement": "nombre de cellules observées par champ de microscope", "setting": "cellules de lignée MCF-7; 1µg/ml (M), 3j", "value": "58± 7"}, {"measurement": "nombre de cellules observées par champ de microscope", "setting": "cellules de lignée MCF-7; 1µg/ml (M), 4j", "value": "63± 8"}, {"measurement": "nombre de cellules observées par champ de microscope", "setting": "cellules de lignée MCF-7; 10µg/ml (F), 1j", "value": "128± 11", "unit": "ns"}, {"measurement": "nombre de cellules observées par champ de microscope", "setting": "cellules de lignée MCF-7; 10µg/ml (F), 2j", "value": "93± 4"}, {"measurement": "nombre de cellules observées par champ de microscope", "setting": "cellules de lignée MCF-7; 10µg/ml (F), 3j", "value": "87± 20"}, {"measurement": "nombre de cellules observées par champ de microscope", "setting": "cellules de lignée MCF-7; 10µg/ml (F), 4j", "value": "88± 18"}, {"measurement": "croissance des cellules MCF-7", "setting": "cellules de lignée MCF-7; dose-indépendante, summary of tableau C", "value": "ralentit fortement la croissance"}, {"measurement": "effet sur le cycle cellulaire (MCF-7)", "setting": "cellules MCF-7", "value": "bloque les cellules en phase S"}]}]}
